The target in one series is T1, human M4 (hM4) receptor (Homo sapiens, UniProt P08173).
T1 sequence (P08173 1-479): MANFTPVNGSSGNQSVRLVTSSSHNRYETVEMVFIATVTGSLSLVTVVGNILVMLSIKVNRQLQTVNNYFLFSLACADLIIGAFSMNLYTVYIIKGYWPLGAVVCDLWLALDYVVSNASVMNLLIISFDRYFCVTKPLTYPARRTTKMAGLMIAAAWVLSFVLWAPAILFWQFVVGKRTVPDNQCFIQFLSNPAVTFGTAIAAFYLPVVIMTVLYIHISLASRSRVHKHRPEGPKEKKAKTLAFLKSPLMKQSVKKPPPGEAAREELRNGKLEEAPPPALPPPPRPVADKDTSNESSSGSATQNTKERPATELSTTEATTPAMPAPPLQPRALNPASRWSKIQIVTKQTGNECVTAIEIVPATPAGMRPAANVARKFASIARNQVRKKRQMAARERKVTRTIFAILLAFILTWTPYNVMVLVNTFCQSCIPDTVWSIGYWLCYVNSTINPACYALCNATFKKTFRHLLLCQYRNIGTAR
The series is classed as cell-based. As to conditions: for hM4 EC50: hM4/Gqi5-CHO cells, EC20 acetylcholine, n=1 experiment in triplicate; for fold increase in functional M4 potency versus 24e: compared with 24e.

The nature of another series: Rat plasma:brain level. To be noted: SD, brain and plasma, iv, 0.2 mg/kg; for Kp at […]: Kpuu, brain:plasma, SD Rat, 0.2 mg/kg IV. The series is classed as in vivo.
Series [1] is described as follows: Rat microsomal intrinsic clearance and predicted hepatic clearance. The format is in vitro ADME. To be noted: microsomes.
The nature of series [2]: Human microsomal intrinsic clearance and predicted hepatic clearance. The format is in vitro ADME. As to conditions: microsomes.

Each structure is given as a SMILES string.

For the compound `Cc1cc(C)c2c(n1)oc1c(NC3CCC3)ncnc12` [17c], the “fold potency decrease versus 16v” value on human M4 (hM4) receptor (compared with 16v) is listed as 4.4 fold.

A word on the CLint scaled: it is the rate of metabolic loss divided by the concentration. In general, EC50 refers to the concentration at which the effect is half-maximal. A higher EC50 goes with weaker potency. In the series “Rat plasma:brain level”, `Cc1cc(C)c2c(n1)sc1c(N3CCCC3)nccc12` [18d] showed a Kp uu at […] of 4.87. In addition, the values for the intrinsic clearance (CLint scaled) in series [1] and in series [2] were 126 L/h/kg and 9.66 L/h/kg, respectively. On human M4 (hM4) receptor, the concentration giving a half-maximal response (EC50) is < 0.35 µM.

Consider `Cc1cc(C)c2c(n1)sc1c(C3CCNCC3)ncnc12` [24e], for which, at human M4 (hM4) receptor (compared with 24d), the “fold loss of hM4 functional potency versus 24d” value was ~ 40 fold.

`COc1ccc(CNc2ncnc3c2oc2nc(C)cc(C)c23)cc1F` [17d]: on human M4 (hM4) receptor, the “hM4 EC50” value is on record as “complete loss of activity”.

Consider `Cc1cc(C)c2c(n1)sc1c(NCc3ccc(C(C)(C)O)cc3F)ncnc12` [16n], for which the “fold decrease (loss) in hM4 potency versus 16m” value at human M4 (hM4) receptor (compared with 16m) is ~ 2.5 fold.

In the case of `Cc1cc(C)c2c(n1)sc1c(C3CCN(C(=O)C4CC4)CC3)ncnc12` [28a], the “fold increase in functional M4 potency versus 24e” value at human M4 (hM4) receptor is recorded as ~ 10 fold.

For the compound `Cc1cc(C)c2c(n1)sc1c(C3CCN(CC4CC4)CC3)ncnc12` [compound 30], the “hM4 EC50” value at human M4 (hM4) receptor is reported as “complete loss of M4 potency”.

Consider `Cc1cc(C)c2c(n1)sc1c(C3CCN(c4cncc(F)c4)CC3)ncnc12` [compound 26], for which the “hM4 EC50” value on human M4 (hM4) receptor is reported as “complete loss of activity”.

Turning to `Cc1cc(C)c2c(n1)oc1c(N3CCCC3)ncnc12` [17a], the “hM4 EC50” value on human M4 (hM4) receptor is “complete loss of activity”.

As to `Cc1cc(C)c2c(n1)oc1c(NC3CN(c4ncc(C(F)(F)F)cn4)C3)ncnc12` [17f], on human M4 (hM4) receptor, the “hM4 EC50” value is “complete loss of activity”.

Usually Kp stands for the ratio of the level in a tissue or fluid to that in plasma or blood. As to `Cc1cc(C)c2c(n1)sc1c(C3CCN(C(=O)C4(C)CC4)CC3)ncnc12` [28b], in “Rat plasma:brain level”, the Kp uu at […] worked out at 0.35 and the Kp at […] lay within 0.35 to 0.65. Further, the intrinsic metabolic clearance (CLint scaled) in series [1] is 22 L/h/kg. Also, the CLint scaled in series [2] is 1.5 L/h/kg. Moreover, the “fold increase in functional M4 potency versus 24e” value on human M4 (hM4) receptor came to 26 fold.

As to `Cc1cc(C)c2c(n1)oc1c(NCc3ccc(C(C)(C)O)cc3)ncnc12` [17e], on human M4 (hM4) receptor, the “hM4 EC50” value is listed as “complete loss of activity”.

`Cc1cc(C)c2c(n1)sc1c(NCc3ccc(C(C)(C)O)cc3)nccc12` [18b] showed a Kp uu at […] in the series “Rat plasma:brain level” of 1.16. For the same compound, the intrinsic metabolic clearance (CLint scaled) was 20 L/h/kg in series [1] and 3 L/h/kg in series [2]. Further, at human M4 (hM4) receptor, the EC50 is < 0.35 µM. Also, the “fold increase in hM4 potency versus 16m” value on human M4 (hM4) receptor (compared with 16m) is recorded as ~ 2.8 fold.

`Cc1cc(C)c2c(n1)sc1c(OCc3ccc(C(C)(C)O)cc3)ncnc12` [compound 19]: at human M4 (hM4) receptor (compared with 16m), the “fold decrease (loss) in hM4 potency versus 16m” value was 9.6 fold.

With `Cc1cc(C)c2c(n1)sc1c(C3CCOCC3)ncnc12` [24d], the “fold increase in hM4 functional potency versus 24a” value on human M4 (hM4) receptor (compared with 24a) is ~45 fold.

In “Rat plasma:brain level”, `Cc1cc(C)c2c(n1)sc1c(N3CC4(COC4)C3)ncnc12` [16y] registered a Kp uu at […] of 0.4 and a partition ratio (Kp) at […] of 0.35 to 0.65. Also, the CLint scaled in series [1] is 35.6 L/h/kg. The intrinsic clearance (CLint scaled) in series [2] is 7.74 L/h/kg.

For the compound `Cc1cc(C)c2c(n1)sc1c(NCc3ccc(S(C)(=O)=O)cc3)ncnc12` [16o], the Kp uu at […] in the series “Rat plasma:brain level” is 0.21. The intrinsic clearance (CLint scaled) was 10.6 L/h/kg in series [1] and 1.68 L/h/kg in series [2]. At human M4 (hM4) receptor, the 50% effective concentration (EC50) was < 0.35 µM.

`Cc1cc(C)c2c(n1)sc1c(N3CCC3)ncnc12` [16x]: in “Rat plasma:brain level”, the Kp uu at […] turned out to be 0.27. Moreover, the figures for the intrinsic metabolic clearance (CLint scaled) in series [1] and in series [2] were 44.5 L/h/kg and 17.8 L/h/kg, respectively. The EC50 at human M4 (hM4) receptor is < 0.35 µM.

On to `Cc1cc(C)c2c(n1)sc1c(NC3CN(c4ncc(C(F)(F)F)cn4)C3)nccc12` [18c], for which the “fold increase in hM4 potency versus 16p” value at human M4 (hM4) receptor (compared with 16p) is ~ 44 fold.

Regarding `Cc1cc(C)c2c(n1)sc1c(NC3CCC3)nccc12` [18g], in “Rat plasma:brain level”, the Kp uu at […] is 4.18. In addition, the intrinsic metabolic clearance (CLint scaled) in series [1] was 232 L/h/kg; in series [2] it was 20.7 L/h/kg. Further, on human M4 (hM4) receptor, the concentration giving a half-maximal response (EC50) was < 0.35 µM. Also, the “fold increase in functional hM4 potency versus 16v” value at human M4 (hM4) receptor (compared with 16v) is ~ 4 fold. Besides, the “fold increase in human M4 activity versus parent compound VU0152100” value at human M4 (hM4) receptor (compared with VU0152100) was found to be 6 fold.

On to `Cc1cc(C)c2c(n1)sc1c(N3CCCC3)ncnc12` [16w], for which, in “Rat plasma:brain level”, the Kp uu at […] turned out to be 0.65 and the Kp at […] fell in the range of 0.35 to 0.65. The CLint scaled in series [1] was 114 L/h/kg. In addition, in series [2], the intrinsic clearance (CLint scaled) was 8.04 L/h/kg. The EC50 on human M4 (hM4) receptor is < 0.35 µM.
